Laboratory results taken from patent US11174251B2, “Compositions and methods for inhibition of the JAK pathway” (Rigel Pharmaceuticals, Inc., priority 2010, dated 2021).
Structures can show the parent of a compound that is named as a salt.

These molecules were tested against T1, JAK3 (Homo sapiens, UniProt P52333) (assay: Assay for CD23 expression on Ramos B-cells stimulated by IL-4 (Table IV: ability to inhibit JAK3 activity)). Conditions: tested under conditions described in Example 3 (so in the source).
T1 construct: The Ramos B-cell line was acquired from ATCC (ATCC Catalog No. CRL-1596); host or cells: Ramos B-cell line (human)
T1 sequence (P52333 1-1124): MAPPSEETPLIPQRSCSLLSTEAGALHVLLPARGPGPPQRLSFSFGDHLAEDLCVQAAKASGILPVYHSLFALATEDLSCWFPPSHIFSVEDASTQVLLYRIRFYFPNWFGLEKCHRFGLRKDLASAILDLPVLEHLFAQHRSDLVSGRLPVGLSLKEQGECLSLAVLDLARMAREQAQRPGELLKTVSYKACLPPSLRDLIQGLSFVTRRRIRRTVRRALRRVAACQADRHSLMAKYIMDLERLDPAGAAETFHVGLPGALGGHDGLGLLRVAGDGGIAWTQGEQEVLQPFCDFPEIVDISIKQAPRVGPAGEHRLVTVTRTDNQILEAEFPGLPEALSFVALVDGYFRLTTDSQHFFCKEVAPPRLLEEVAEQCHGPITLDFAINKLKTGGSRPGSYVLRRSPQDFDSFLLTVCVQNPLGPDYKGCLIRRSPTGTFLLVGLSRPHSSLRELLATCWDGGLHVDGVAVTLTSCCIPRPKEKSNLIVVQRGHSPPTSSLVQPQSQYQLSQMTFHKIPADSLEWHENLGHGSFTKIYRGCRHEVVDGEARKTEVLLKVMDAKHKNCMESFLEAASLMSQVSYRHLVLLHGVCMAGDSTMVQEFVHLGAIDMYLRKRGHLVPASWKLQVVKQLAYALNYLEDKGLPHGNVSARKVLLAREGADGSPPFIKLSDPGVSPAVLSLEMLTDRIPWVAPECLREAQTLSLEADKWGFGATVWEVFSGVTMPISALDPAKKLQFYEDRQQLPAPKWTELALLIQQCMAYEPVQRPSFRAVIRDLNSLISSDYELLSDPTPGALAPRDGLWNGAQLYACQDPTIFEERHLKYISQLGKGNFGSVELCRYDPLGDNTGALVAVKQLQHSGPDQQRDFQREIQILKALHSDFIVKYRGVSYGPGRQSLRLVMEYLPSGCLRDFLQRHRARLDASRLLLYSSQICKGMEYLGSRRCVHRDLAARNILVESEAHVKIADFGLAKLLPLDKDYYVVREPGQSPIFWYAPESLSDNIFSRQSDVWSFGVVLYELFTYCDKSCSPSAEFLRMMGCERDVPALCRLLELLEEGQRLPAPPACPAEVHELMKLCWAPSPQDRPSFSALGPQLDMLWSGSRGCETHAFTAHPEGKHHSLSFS
Assay type: cell-based
Text: One means of assaying for such inhibition is detection of the effect of the 2,4-pyrimidinediamine compounds on the upregulation of downstream gene products. In the Ramos/IL4 assay, B-cells are stimulated with the cytokine Interleukin-4 (IL-4) leading to the activation of the JAK/Stat pathway through phosphorylation of the JAK family kinases, JAK1 and JAK3, which in turn phosphorylate and activate the transcription factor Stat-6. […] To study the effect of inhibitors (for example, the 2,4-substituted pyrimindinediamine compounds described herein) on the JAK1 and JAK3 kinases, human Ramos B cells are stimulated with human IL-4. 20 to 24 hours post stimulation, cells are stained for upregulation of CD23 and analyzed using FACS.
B-cells stimulated with cytokine Interleukin-4 (IL-4) activate the JAK/Stat pathway through phosphorylation of the JAK family kinases, JAK-1 and JAK-3, which in turn phosphorylate and activate the transcription factor Stat-6. […] To study the effect of inhibitors on the JAK family kinases, human Ramos B cells were stimulated with human IL-4 and the surface expression of CD23 was measured.
The day before the experiment, Ramos B-cells were diluted to 3.5×10^5 cells/mL to ensure that they were in a logarithmic growth phase.
Cells were spun down and suspended in RPMI with 5% serum. 5×10^4 cells were used per point in a 96-well tissue culture plate. Cells were pre-incubated with compound or DMSO (Sigma-Aldrich, St. Louis, Mo., Cat No. D2650) vehicle control for 1 hour in a 37° C. incubator. Cells were then stimulated with IL-4 (Peprotech Inc., Rocky Hill, N.J., Cat No. 200-04) for a final concentration of 50 units/mL for 20-24 hours. […] Detection was performed using a BD LSR I System Flow Cytometer, purchased from Becton Dickinson Biosciences of San Jose, Calif.
The compound designations in Table IV are consistent with those of Tables I-II above.

`O=C1CCCCc2cc(Nc3ncc(F)c(Nc4ccc5oc(=O)[nH]c5c4)n3)ccc21` [II-5, 5-(5-fluoro-2-(5-oxo-6,7,8,9-tetrahydro-5H-benzo[7]annulen-2-ylamino)pyrimidin-4-ylamino)benzo[d]oxazol-2(3H)-one formate salt] and `Cc1cnc(Nc2ccc3c(c2)COC3=O)nc1Nc1ccc2oc(=O)[nH]c2c1` [II-10, 5-methyl-N4-(2-oxo-2,3-dihydro-1,3-benzoxazol-5-yl)-N2-(1-oxo-1,3-dihydro-isobenzofuran-5-yl)-2,4-pyrimidinediamine] cannot be ordered by IC50: less than 500 nM for the first, less than 500 nM for the second.

`O=C(NC1CCC1)c1ccc(Nc2ncc(F)c(Nc3ccc4oc(=O)[nH]c4c3)n2)cc1` [Compound I-159, N-cyclobutyl-4-(5-fluoro-4-(2-oxo-2,3-dihydrobenzo[d]oxazol-5-ylamino)pyrimidin-2-ylamino)benzamide formate salt] and `CC(C)NC(=O)c1ccc(Nc2ncc(F)c(Nc3ccc4oc(=O)[nH]c4c3)n2)cc1` [Compound I-163, 4-(5-fluoro-4-(2-oxo-2,3-dihydrobenzo[d]oxazol-5-ylamino)pyrimidin-2-ylamino)-N-isopropylbenzamide formate salt] cannot be ordered by IC50: less than 500 nM for the first, less than 500 nM for the second.

`COc1cc(Nc2ncc(F)c(Nc3ccc4oc(=O)[nH]c4c3)n2)cc(C(F)(F)F)c1` [Compound I-211, 5-fluoro-N2-(3-methoxy-5-trifluoromethyl)phenyl-N4-(2-oxo-2,3-dihydro-1,3-benzoxazol-5-yl)-2,4-pyrimidinediamine] and `O=c1[nH]c2cc(Nc3nc(Nc4ccc(C(F)(F)F)cc4)ncc3Cl)ccc2o1` [Compound I-15, 5-(5-chloro-2-(4-(trifluoromethyl)phenylamino)pyrimidin-4-ylamino)benzo[d]oxazol-2(3H)-one trifluoroacetate salt] cannot be ordered by IC50: less than 500 nM for the first, less than 500 nM for the second.

Going from `CCCNC(=O)c1ccc(Nc2ncc(F)c(Nc3ccc4oc(=O)[nH]c4c3)n2)cc1` [Compound I-160, 4-(5-fluoro-4-(2-oxo-2,3-dihydrobenzo[d]oxazol-5-ylamino)pyrimidin-2-ylamino)-N-propylbenzamide formate salt] to `NC(=O)c1ccc(Nc2ncc([N+](=O)[O-])c(Nc3ccc4oc(=O)[nH]c4c3)n2)cc1` [Compound I-60, 4-(5-nitro-4-(2-oxo-2,3-dihydrobenzo[d]oxazol-5-ylamino)pyrimidin-2-ylamino)benzamide trifluoroacetate salt], the IC50 rises from less than 500 nM to greater than 10000 nM.

`COc1cc(Nc2ncc(F)c(Nc3cc(F)c4oc(=O)[nH]c4c3)n2)cc(C)c1C` [Compound I-112, 7-fluoro-5-(5-fluoro-2-(3-methoxy-4,5-dimethylphenylamino)pyrimidin-4-ylamino)benzo[d]oxazol-2(3H)-one trifluoroacetate salt] and `COc1ccc(Nc2ncc(F)c(Nc3cc(C)c4oc(=O)[nH]c4c3)n2)cc1C` [Compound I-178, 5-(2-(4-methoxy-3-methylphenylamino)-5-fluoropyrimidin-4-ylamino)-7-methylbenzo[d]oxazol-2(3H)-one trifluoroacetate salt] cannot be ordered by IC50: less than 500 nM for the first, less than 500 nM for the second.

Compared with `C#Cc1cnc(Nc2cc(C)c(C)c(C)c2)nc1Nc1ccc2oc(=O)[nH]c2c1` [Compound I-18, 5-[5-Ethynyl-2-(3,4,5-trimethyl-phenylamino)-pyrimidin-4-ylamino]-3H-benzooxazol-2-one trifluoroacetate salt], `[2H]C([2H])([2H])c1c(C)cc(Nc2ncc(F)c(Nc3ccc4oc(=O)[nH]c4c3)n2)cc1C` [Compound I-37, 5-(5-fluoro-2-(3,5-dimethyl-4-d3-methyl)phenylamino)pyrimidin-4-ylamino)benzo[d]oxazol-2(3H)-one trifluoroacetate salt] is higher in IC50: less than 500 nM for the first, greater than 10000 nM for the second.

First: Cc1cnc(Nc2ccc(C#N)c(C)n2)nc1Nc1ccc2oc(=O)[nH]c2c1 [II-16, N2-(5-cyano-6-methylpyridin-2-yl)-5-methyl-N4-(2-oxo-2,3-dihydro-1,3-benzoxazol-5-yl)-2,4-pyrimidinediamine]
Second: Cc1cc(Nc2ncc(C)c(Nc3ccc4oc(=O)[nH]c4c3)n2)ncc1C#N [II-22, N2-(5-cyano-4-methylpyridin-2-yl)-5-methyl-N4-(2-oxo-2,3-dihydro-1,3-benzoxazol-5-yl)-2,4-pyrimidinediamine]
The IC50 of the first is higher: greater than 10000 nM for the first, 500 to 5000 nM for the second.

Compared with `COc1cc(Nc2ncc([N+](=O)[O-])c(Nc3ccc4oc(=O)[nH]c4c3)n2)ccc1C` [Compound I-44, 5-(2-(3-methoxy-4-methylphenylamino)-5-nitropyrimidin-4-ylamino)benzo[d]oxazol-2(3H)-one trifluoroacetate salt], `COc1cc(Nc2ncc(Cl)c(Nc3ccc4oc(=O)[nH]c4c3)n2)ccc1C` [Compound I-32, 5-(5-chloro-2-(3-methoxy-4-methylphenylamino)pyrimidin-4-ylamino)benzo[d]oxazol-2(3H)-one trifluoroacetate salt] is lower in IC50: greater than 10000 nM for the first, less than 500 nM for the second. The second is the more potent here.

`Cc1ccc(Nc2ncc(F)c(Nc3ccc4oc(=O)[nH]c4c3)n2)cc1C#N` [Compound I-1, 5-(5-fluoro-4-(2-oxo-2,3-dihydrobenzo[d]oxazol-5-ylamino)pyrimidin-2-ylamino)-2-methylbenzonitrile formate salt] and `COc1cc(Nc2ncc(F)c(Nc3ccc4oc(=O)[nH]c4c3)n2)ccc1C(=O)NC1CCC1` [Compound I-164, N-cyclobutyl-4-(5-fluoro-4-(2-oxo-2,3-dihydrobenzo[d]oxazol-5-ylamino)pyrimidin-2-ylamino)-2-methoxybenzamide formate salt] cannot be ordered by IC50: less than 500 nM for the first, less than 500 nM for the second.

Compared with `COC(=O)c1cnc(Nc2cc(C)c(F)c(C)c2)nc1Nc1ccc2oc(=O)[nH]c2c1` [Compound I-74, methyl 2-(4-fluoro-3,5-dimethylphenylamino)-4-(2-oxo-2,3-dihydrobenzo[d]oxazol-5-ylamino)pyrimidine-5-carboxylate trifluoroacetate salt], `Cc1cnc(Nc2cc(C)c(C(=O)OC(C)(C)C)c(C)c2)nc1Nc1ccc2oc(=O)[nH]c2c1` [Compound I-150, N2-(4-tert-butoxycarbonyl-3,5-dimethyl)phenyl-5-methyl-N4-(2-oxo-2,3-dihydro-1,3-benzoxazol-5-yl)-2,4-pyrimidinediamine] is lower in IC50: 5000 to 10000 nM for the first, less than 500 nM for the second. The second is the more potent here.

`COc1cccc(Nc2nccc(Nc3ccc4oc(=O)[nH]c4c3)n2)c1F` [Compound I-23, 5-(2-(2-fluoro-3-methoxyphenylamino)pyrimidin-4-ylamino)benzo[d]oxazol-2(3H)-one] and `COCCOc1c(C)ccc(Nc2nccc(Nc3ccc4oc(=O)[nH]c4c3)n2)c1F` [Compound I-62, 5-(2-(2-fluoro-3-(2-methoxyethoxy)-4-methylphenylamino)pyrimidin-4-ylamino)benzo[d]oxazol-2(3H)-one] fall in the same range of IC50: 500 to 5000 nM for the first, 500 to 5000 nM for the second.

`O=C(NC1CC1)c1ccc(Nc2ncc(F)c(Nc3ccc4oc(=O)[nH]c4c3)n2)cc1C(F)(F)F` [Compound I-165, N-cyclopropyl-4-(5-fluoro-4-(2-oxo-2,3-dihydrobenzo[d]oxazol-5-ylamino)pyrimidin-2-ylamino)-2-(trifluoromethyl)benzamide formate salt] gave an IC50 of less than 500 nM.
